Measurements as given in PubChem BioAssay (NCI).
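Each compound was tested at five concentrations against cells in 96-well plates for 48 hours. The concentration for full growth arrest is given as TGI.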

Experiments:
Assay in all cases: NCI anticancer screen, dose series, 48 h
UACC-257 melanoma = tested on: UACC-257 melanoma
U251 CNS = tested on: U251 CNS
OVCAR-3 ovarian = tested on: OVCAR-3 ovarian
UACC-62 melanoma = tested on: UACC-62 melanoma
SNB-19 CNS = tested on: SNB-19 CNS
SK-MEL-2 melanoma = tested on: SK-MEL-2 melanoma
RPMI-8226 leukemia = tested on: RPMI-8226 leukemia
SW-620 colon = tested on: SW-620 colon
HT29 colon = tested on: HT29 colon
NCI-H23 lung = tested on: NCI-H23 lung
SF-295 CNS = tested on: SF-295 CNS
HCT-15 colon = tested on: HCT-15 colon
HOP-92 NSCLC = tested on: HOP-92 NSCLC
HL-60(TB) leukemia = tested on: HL-60(TB) leukemia
RXF 393 renal = tested on: RXF 393 renal
COLO 205 colon = tested on: COLO 205 colon
A549 NSCLC = tested on: A549 NSCLC
NCI-H460 lung = tested on: NCI-H460 lung
DU-145 prostate = tested on: DU-145 prostate

Measured: TGI

CCOc1cn(C2OC(CO)C(O)C2O)c(=O)[nH]c1=O (stereo unspecified)
89.5 µM: SW-620 colon
43.7 µM: U251 CNS
> 100 µM: UACC-257 melanoma | OVCAR-3 ovarian | UACC-62 melanoma | SNB-19 CNS | SK-MEL-2 melanoma | RPMI-8226 leukemia | HT29 colon | NCI-H23 lung | SF-295 CNS | HCT-15 colon | HOP-92 NSCLC | HL-60(TB) leukemia | RXF 393 renal | COLO 205 colon | A549 NSCLC | NCI-H460 lung

CCCCN1C(=O)c2c(Br)sc(Br)c2C1=O
> 100 µM: UACC-257 melanoma | U251 CNS | UACC-62 melanoma | SNB-19 CNS | SK-MEL-2 melanoma | RPMI-8226 leukemia | NCI-H23 lung | SF-295 CNS | HCT-15 colon | DU-145 prostate | RXF 393 renal | NCI-H460 lung
66.2 µM: SW-620 colon
70.3 µM: A549 NSCLC
39.1 µM: COLO 205 colon
47.1 µM: HT29 colon

O=C(O)c1ccccc1CC1Cc2cc3c(cc2C1)CCC3
> 100 µM: UACC-257 melanoma | U251 CNS | OVCAR-3 ovarian | UACC-62 melanoma | SNB-19 CNS | SK-MEL-2 melanoma | RPMI-8226 leukemia | SW-620 colon | HT29 colon | NCI-H23 lung | SF-295 CNS | HCT-15 colon | DU-145 prostate | HL-60(TB) leukemia | RXF 393 renal | COLO 205 colon | A549 NSCLC | NCI-H460 lung

O=[N+]([O-])c1ccc(N/N=C2/CC3=C2CCCCCCCCCC3)c([N+](=O)[O-])c1
> 100 µM: UACC-257 melanoma | U251 CNS | OVCAR-3 ovarian | UACC-62 melanoma | SNB-19 CNS | SK-MEL-2 melanoma | RPMI-8226 leukemia | SW-620 colon | HT29 colon | NCI-H23 lung | SF-295 CNS | HCT-15 colon | DU-145 prostate | RXF 393 renal | COLO 205 colon | A549 NSCLC | NCI-H460 lung

Cc1ccc(OCC2OC(n3cnc4nc(Nc5ccc(Cl)c(Cl)c5)nc(Cl)c43)CC2Oc2ccc(C)cc2)cc1 (stereo unspecified)
> 100 µM: UACC-257 melanoma | U251 CNS | OVCAR-3 ovarian | UACC-62 melanoma | SNB-19 CNS | SK-MEL-2 melanoma | RPMI-8226 leukemia | SW-620 colon | HT29 colon | NCI-H23 lung | SF-295 CNS | HCT-15 colon | DU-145 prostate | RXF 393 renal | COLO 205 colon | A549 NSCLC | NCI-H460 lung

COC(=O)[C@@]1(C)C(=O)CC[C@@H]1C=O
> 100 µM: UACC-257 melanoma | U251 CNS | OVCAR-3 ovarian | UACC-62 melanoma | SNB-19 CNS | SK-MEL-2 melanoma | RPMI-8226 leukemia | SW-620 colon | HT29 colon | NCI-H23 lung | SF-295 CNS | HCT-15 colon | HL-60(TB) leukemia | COLO 205 colon | A549 NSCLC | NCI-H460 lung

CCOC(=O)C1=C(C)NC2=C(C(=O)N(c3ccccc3)C2c2ccccc2)C1c1ccccc1 (stereo unspecified)
25.4 µM: OVCAR-3 ovarian
25.8 µM: HOP-92 NSCLC
33.5 µM: SK-MEL-2 melanoma | COLO 205 colon
33.7 µM: NCI-H23 lung
53.4 µM: RPMI-8226 leukemia
29.3 µM: U251 CNS
40.2 µM: UACC-257 melanoma
32.2 µM: HCT-15 colon
37.2 µM: HT29 colon
47.5 µM: SW-620 colon
26.7 µM: UACC-62 melanoma
81.2 µM: HL-60(TB) leukemia
44.2 µM: A549 NSCLC

CSc1nn(C)cc2ncnc1-2
> 100 µM: UACC-257 melanoma | U251 CNS | OVCAR-3 ovarian | UACC-62 melanoma | SNB-19 CNS | SK-MEL-2 melanoma | RPMI-8226 leukemia | SW-620 colon | HT29 colon | NCI-H23 lung | SF-295 CNS | HCT-15 colon | DU-145 prostate | HL-60(TB) leukemia | RXF 393 renal | COLO 205 colon | A549 NSCLC | NCI-H460 lung

CCC1(CC)C(=O)N(C(=O)c2ccccc2)N(C(=O)c2ccc(Cl)cc2)C1=O
> 75 µM: UACC-257 melanoma | U251 CNS | OVCAR-3 ovarian | UACC-62 melanoma | SNB-19 CNS | SK-MEL-2 melanoma | RPMI-8226 leukemia | SW-620 colon | HT29 colon | NCI-H23 lung | SF-295 CNS | HCT-15 colon | DU-145 prostate | HL-60(TB) leukemia | RXF 393 renal | COLO 205 colon | A549 NSCLC | NCI-H460 lung

CC(=O)OCC1OC(OC2C(COC(C)=O)OC(Sc3ccccc3C)C(OC(C)=O)C2OC(C)=O)C(OC(C)=O)C(OC(C)=O)C1OC(C)=O (stereo unspecified)
> 100 µM: UACC-257 melanoma | U251 CNS | UACC-62 melanoma | SNB-19 CNS | SK-MEL-2 melanoma | RPMI-8226 leukemia | SW-620 colon | HT29 colon | NCI-H23 lung | SF-295 CNS | HCT-15 colon | HOP-92 NSCLC | RXF 393 renal | COLO 205 colon | A549 NSCLC | NCI-H460 lung

COc1ccc2c(C)c(Oc3c(Cl)c(Cl)c(O)c(C#N)c3C#N)oc2c1
> 100 µM: UACC-257 melanoma | U251 CNS | OVCAR-3 ovarian | UACC-62 melanoma | SNB-19 CNS | SK-MEL-2 melanoma | RPMI-8226 leukemia | SW-620 colon | HT29 colon | NCI-H23 lung | SF-295 CNS | HCT-15 colon | DU-145 prostate | HL-60(TB) leukemia | COLO 205 colon | A549 NSCLC | NCI-H460 lung

CCOC(=O)c1ccc(C(=O)n2ccnc2)[nH]1
> 100 µM: UACC-257 melanoma | U251 CNS | OVCAR-3 ovarian | UACC-62 melanoma | SNB-19 CNS | SK-MEL-2 melanoma | RPMI-8226 leukemia | SW-620 colon | NCI-H23 lung | SF-295 CNS | HCT-15 colon | DU-145 prostate | HL-60(TB) leukemia | RXF 393 renal | COLO 205 colon | A549 NSCLC | NCI-H460 lung

COc1cc2c(c(O)c1OC)C(=O)[C@@H]1CCC(=O)N1C2c1ccccc1 (stereo partly specified)
> 100 µM: UACC-257 melanoma | U251 CNS | OVCAR-3 ovarian | UACC-62 melanoma | SNB-19 CNS | SK-MEL-2 melanoma | RPMI-8226 leukemia | SW-620 colon | HT29 colon | NCI-H23 lung | SF-295 CNS | HCT-15 colon | DU-145 prostate | HL-60(TB) leukemia | COLO 205 colon | A549 NSCLC | NCI-H460 lung

O=C1C2CCCCC2C(=O)N1n1c(-c2ccccc2)n[nH]c1=O (stereo unspecified)
> 100 µM: UACC-257 melanoma | U251 CNS | OVCAR-3 ovarian | UACC-62 melanoma | SNB-19 CNS | SK-MEL-2 melanoma | RPMI-8226 leukemia | SW-620 colon | HT29 colon | NCI-H23 lung | SF-295 CNS | HCT-15 colon | HOP-92 NSCLC | RXF 393 renal | COLO 205 colon | A549 NSCLC | NCI-H460 lung
